Patent US10273236B2, “Macrocyclic factor XIa inhibitors bearing heterocyclic groups” (Bristol-Myers Squibb Company, priority 2014, dated 2019)
Where a name gives a salt, the structure may show the parent alone.

Key:
[1] = target: T1, purified human Factor XIa (Homo sapiens, UniProt P03951); test: Factor XIa inhibition assay, chromogenic substrate S-2366 (Ki); type: biochemical
T1 construct: purchased Haematologic Technologies
Procedure: (§1) The effectiveness of compounds of the present invention as inhibitors of the coagulation Factors XIa, VIIa, IXa, Xa, XIIa, plasma kallikrein or thrombin, can be determined using a relevant purified serine protease, respectively, and an appropriate synthetic substrate. The rate of hydrolysis of the chromogenic or fluorogenic substrate by the relevant serine protease was measured both in the absence and presence of compounds of the present invention. […] A decrease in the rate of absorbance or fluorescence change in the presence of inhibitor is indicative of enzyme inhibition. Such methods are known to one skilled in the art. The results of this assay are expressed as the inhibitory constant, Ki.
Factor XIa determinations were made in 50 mM HEPES buffer at pH 7.4 containing 145 mM NaCl, 5 mM KCl, and 0.1% PEG 8000 (polyethylene glycol; JT Baker or Fisher Scientific). Determinations were made using purified human Factor XIa at a final concentration of 25-200 pM (Haematologic Technologies) and the synthetic substrate S-2366 (pyroGlu-Pro-Arg-pNA; Chromogenix or AnaSpec) at a concentration of 0.0002-0.001 M.
(§2) Values of Ki were determined by allowing the protease to react with the substrate in the presence of the inhibitor.
(§3) Reactions were allowed to go for periods of 20-180 minutes (depending on the protease) and the velocities (rate of absorbance or fluorescence change versus time) were measured.
(§4) The following relationships were used to calculate Ki values: (Vmax*S)/(Km+S) (vo−vs)/vs=I/(Ki(1+S/Km)) for a competitive inhibitor with one binding site; or vs/vo=A+((B−A)/1+((IC50/(I)^n))); and Ki=IC50/(1+S/Km) for a competitive inhibitor where: […]

[2] = target: T2, purified human plasma kallikrein (Homo sapiens, UniProt P03952); test: Plasma kallikrein inhibition assay, chromogenic substrate S-2302 (Ki); type: biochemical
T2 construct: Plasma prekallikrein is a zymogen of a trypsin-like serine protease; purchased Enzyme Research Laboratories
Procedure: as §1
Plasma kallikrein determinations were made in 0.1 M sodium phosphate buffer at a pH of 7.5 containing 0.1-0.2 M sodium chloride and 0.5% PEG 8000. Determinations were made using purified human plasma kallikrein (Enzyme Research Laboratories) at a final assay concentration of 200 pM and the synthetic substrate S-2302 (H-(D)-Pro-Phe-Arg-pNA; Chromogenix) at a concentration of 0.00008-0.0004 M.
as §2, §3, §4

T2 sequence (P03952 391-638 limits assumed): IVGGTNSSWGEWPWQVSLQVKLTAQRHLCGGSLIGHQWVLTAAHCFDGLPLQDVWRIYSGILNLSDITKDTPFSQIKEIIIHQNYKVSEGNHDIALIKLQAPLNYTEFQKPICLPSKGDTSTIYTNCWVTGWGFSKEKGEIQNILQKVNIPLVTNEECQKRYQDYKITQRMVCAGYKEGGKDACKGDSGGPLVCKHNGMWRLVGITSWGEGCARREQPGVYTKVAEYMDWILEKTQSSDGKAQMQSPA
T2 sequence (P03952 20-390 partner limits assumed): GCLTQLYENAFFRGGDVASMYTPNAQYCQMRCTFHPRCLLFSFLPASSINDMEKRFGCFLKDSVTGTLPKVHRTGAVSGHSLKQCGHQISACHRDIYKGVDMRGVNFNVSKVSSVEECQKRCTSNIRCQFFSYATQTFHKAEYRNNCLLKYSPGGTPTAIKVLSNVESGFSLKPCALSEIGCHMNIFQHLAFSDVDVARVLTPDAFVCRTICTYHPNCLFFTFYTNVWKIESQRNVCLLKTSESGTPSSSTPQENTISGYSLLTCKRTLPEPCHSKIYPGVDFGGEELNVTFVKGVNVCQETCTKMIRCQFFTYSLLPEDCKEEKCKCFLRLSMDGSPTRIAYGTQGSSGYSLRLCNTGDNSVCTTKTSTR
T1 sequence (P03951 388-625 limits assumed): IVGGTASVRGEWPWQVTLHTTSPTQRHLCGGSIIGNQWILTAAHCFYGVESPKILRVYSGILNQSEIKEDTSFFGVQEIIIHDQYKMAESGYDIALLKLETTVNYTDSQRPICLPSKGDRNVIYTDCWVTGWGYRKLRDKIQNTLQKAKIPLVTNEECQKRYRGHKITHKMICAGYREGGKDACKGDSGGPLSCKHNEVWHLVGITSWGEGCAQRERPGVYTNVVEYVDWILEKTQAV
T1 sequence (P03951 19-387 partner limits assumed): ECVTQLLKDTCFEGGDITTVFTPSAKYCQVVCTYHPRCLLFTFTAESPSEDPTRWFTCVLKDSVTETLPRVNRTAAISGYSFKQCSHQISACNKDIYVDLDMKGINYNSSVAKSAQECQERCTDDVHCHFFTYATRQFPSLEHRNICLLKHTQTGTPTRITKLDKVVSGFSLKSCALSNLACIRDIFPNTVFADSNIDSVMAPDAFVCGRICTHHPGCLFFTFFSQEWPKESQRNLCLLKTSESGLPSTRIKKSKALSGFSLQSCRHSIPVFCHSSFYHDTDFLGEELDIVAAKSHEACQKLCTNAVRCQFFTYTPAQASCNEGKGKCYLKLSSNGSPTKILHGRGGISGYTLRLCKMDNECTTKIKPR

SMILES | Ki [1] [nM] | Ki [2] [nM]
C[C@H]1C(=O)Nc2cnn(C)c2-c2ccnc(c2)[C@@H](N2CCC(c3cc(Cl)ccc3-n3cc(Cl)nn3)=CC2=O)CCC1F (single isomer, unassigned; isomer a) [Example 13] | 0.1 | 6
C[C@H]1C(=O)Nc2cnn(C)c2-c2ccnc(c2)[C@@H](N2CCC(c3cc(Cl)ccc3-n3cc(Cl)nn3)=CC2=O)CCC1F (single isomer, unassigned; isomer b) [Example 15] | 19 | 450
C[C@@H]1CCC[C@H](N2CCC(c3cc(Cl)ccc3-n3ccnn3)=CC2=O)c2cc(ccn2)-c2c(cnn2C2CC2)NC1=O (stereo in doubt) [Example 5, 13-{4-[5-chloro-2-(1H-1,2,3-triazol-1-yl)phenyl]-6-oxo-1,2,3,6-tetrahydropyridin-1-yl}-3-cyclopropyl-9-methyl-3,4,7,15-tetraazatricyclo [12.3.1.0^2,6]octadeca-1(18),2(6),4,14,16-pentaen-8-one] | 1.4 | 52
CCn1ncc2c1-c1ccnc(c1)[C@@H](N1CCC(c3cc(Cl)ccc3-n3ccnn3)=CC1=O)CCC[C@@H](C)C(=O)N2 (stereo in doubt) [Example 7, 13-{4-[5-chloro-2-(1H-1,2,3-triazol-1-yl)phenyl]-6-oxo-1,2,3,6-tetrahydropyridin-1-yl}-3-ethyl-9-methyl-3,4,7,15-tetraazatricyclo[12.3.1.0^2,6]octadeca-1(18),2(6),4,14,16-pentaen-8-one] |  | 41
C[C@@H]1CCC[C@H](N2CCC(c3cc(Cl)ccc3-n3ccnn3)=CC2=O)c2cc(ccn2)-c2c(cnn2CCO)NC1=O (stereo in doubt) [Example 11, 13-{4-[5-chloro-2-(1H-1,2,3-triazol-1-yl)phenyl]-6-oxo-1,2,3,6-tetrahydropyridin-1-yl}-3-(2-hydroxyethyl)-9-methyl-3,4,7,15-tetraazatricyclo[12.3.1.0^2,6]octadeca-1(18),2(6),4,14,16-pentaen-8-one] | 5.5 | 140
C[C@@H]1CCC[C@H](N2CCC(c3c(F)ccc(Cl)c3F)=CC2=O)c2cc(ccn2)-c2c(cnn2C)NC1=O [Example 2, (9R,13S)-13-[4-(3-chloro-2,6-difluorophenyl)-6-oxo-1,2,3,6-tetrahydropyridin-1-yl]-3,9-dimethyl-3,4,7,15-tetraazatricyclo[12.3.1.0^2,6]octadeca-1(18),2(6),4,14,16-pentaen-8-one] | 10 | 30
C[C@@H]1CCC[C@H](N2CCC(c3c(C(F)(F)F)ccc(Cl)c3F)=CC2=O)c2cc(ccn2)-c2c(cnn2C)NC1=O [Example 6] | 1.7 | 7
C[C@@H]1CCC[C@H](N2CCC(c3c(F)ccc(Cl)c3F)=CC2=O)c2cc(ccn2)-c2nn(-c3ccnc(O)c3)cc2NC1=O [Example 9, (9R,13S)-13-[4-(3-chloro-2,6-difluorophenyl)-6-oxo-1,2,3,6-tetrahydropyridin-1-yl]-4-(2-hydroxypyridin-4-yl)-9-methyl-3,4,7,15-tetraazatricyclo[12.3.1.0^2,6]octadeca-1(18),2,5,14,16-pentaen-8-one] | 14 | 14
C[C@@H]1CCC[C@H](N2CCC(c3cc(Cl)ccc3-n3ccnn3)=CC2=O)c2cc(ccn2)-c2nn(CC(=O)O)cc2NC1=O [Example 12, 2-(13-{4-[5-chloro-2-(1H-1,2,3-triazol-1-yl)phenyl]-6-oxo-1,2,3,6-tetrahydropyridin-1l-yl}-9-methyl-8-oxo-3,4,7,15-tetraazatricyclo[12.3.1.0^2,6]octadeca-1(18),2,5,14,16-pentaen-4-yl)acetic Acid] | 14 | 480
C[C@@H]1CCC[C@H](N2CCC(c3c(C(F)(F)F)ccc(Cl)c3F)=CC2=O)c2cc(ccn2)-c2c(cnn2C(F)F)NC1=O [Example 14, (9R,13S)-13-{4-[3-chloro-2-fluoro-6-(trifluoromethyl)phenyl]-6-oxo-1,2,3,6-tetrahydropyridin-1-yl}-3-(difluoromethyl)-9-methyl-3,4,7,15-tetraazatricyclo[12.3.1.0^2,6]octadeca-1(18),2(6),4,14,16-pentaen-8-one] | 1 | 110
C[C@@H]1CCC[C@H](N2CCC(c3cc(Cl)ccc3-n3cc(Cl)nn3)=CC2=O)c2cc(ccn2)-c2c(cnn2CC(=O)O)NC1=O [Example 16, 2-[(9R,13S)-13-{4-[5-chloro-2-(4-chloro-1H-1,2,3-triazol-1-yl)phenyl]-6-oxo-1,2,3,6-tetrahydropyridin-1-yl}-9-methyl-8-oxo-3,4,7,15-tetraazatricyclo [12.3.1.0^2,6]octadeca-1(18),2(6),4,14,16-pentaen-3-yl]acetic acid] | 0.19 | 17
C[C@@H]1CCC[C@H](N2CCC(c3cc(Cl)ccc3C#N)=CC2=O)c2cc(ccn2)-c2c(cnn2C(F)F)NC1=O [Example 19, 4-chloro-2-{1-[(9R,13S)-3-(difluoromethyl)-9-methyl-8-oxo-3,4,7,15-tetraazatricyclo[12.3.1.0^2,6]octadeca-1(18),2(6),4,14,16-pentaen-13-yl]-6-oxo-1,2,3,6-tetrahydropyridin-4-yl}benzonitrile] | 1.4 | 10

The remaining compounds from weak to strong by Ki [2], led by results:

Ki [1] [nM] | Ki [2] [nM] | SMILES
 | 90 | C[C@@H]1CCC[C@H](N2CCC(c3cc(Cl)ccc3-n3ccnn3)=CC2=O)c2cc(ccn2)-c2c(cnn2CC(F)F)NC1=O (stereo in doubt) [Example 8, 13-{4-[5-chloro-2-(1H-1,2,3-triazol-1-yl)phenyl]-6-oxo-1,2,3,6-tetrahydropyridin-1-yl}-3-(2,2-difluoroethyl)-9-methyl-3,4,7,15-tetraazatricyclo [12.3.1.0^2,6]octadeca-1(18),2(6),4,14,16-pentaen-8-one]
14 | 50 | CCn1ncc2c1-c1ccnc(c1)[C@@H](N1CCC(c3c(F)ccc(Cl)c3F)=CC1=O)CCC[C@@H](C)C(=O)N2 [Example 10, (9R,13S)-13-[4-(3-chloro-2,6-difluorophenyl)-6-oxo-1,2,3,6-tetrahydropyridin-1-yl]-3-ethyl-9-methyl-3,4,7,15-tetraazatricyclo[12.3.1.0^2,6]octadeca-1(18),2(6),4,14,16-pentaen-8-one]
2.8 | 30 | [2H]C([2H])([2H])n1ncc2c1-c1ccnc(c1)[C@@H](N1CCC(c3c(C(F)(F)F)ccc(Cl)c3F)=CC1=O)CCC[C@@H](C)C(=O)N2 [Example 18, (9R,13S)-13-{4-[3-chloro-2-fluoro-6-(trifluoromethyl)phenyl]-6-oxo-1,2,3,6-tetrahydropyridin-1-yl}-3-(^2H3)methyl-9-methyl-3,4,7,15-tetraazatricyclo[12.3.1.0^2,6]octadeca-1(18),2(6),4,14,16-pentaen-8-one]
1.8 | 24 | C[C@@H]1CCC[C@H](N2CCC(c3cc(Cl)ccc3-n3ccnn3)=CC2=O)c2cc(ccn2)-c2c(cnn2C)NC1=O [Example 1, (9R,13S)-13-{4-[5-chloro-2-(1H-1,2,3-triazol-1-yl)phenyl]-6-oxo-1,2,3,6-tetrahydropyridin-1-yl}-3,9-dimethyl-3,4,7,15-tetraazatricyclo[12.3.1.0^2,6]octadeca-1(18),2(6),4,14,16-pentaen-8-one trifluoroacetate]
3.2 | 19 | C[C@@H]1CCC[C@H](n2ccc(-c3cc(Cl)ccc3C#N)cc2=O)c2cc(ccn2)-c2c(cnn2C(F)F)NC1=O [Example 4, 4-chloro-2-{1-[(9R,13S)-3-(difluoromethyl)-9-methyl-8-oxo-3,4,7,15-tetraazatricyclo[12.3.1.0^2,6]octadeca-1(18),2(6),4,14,16-pentaen-13-yl]-2-oxo-1,2-dihydropyridin-4-yl}benzonitrile]
0.15 | 10 | [2H]C([2H])([2H])n1ncc2c1-c1ccnc(c1)[C@@H](N1CCC(c3cc(Cl)ccc3-n3cc(Cl)nn3)=CC1=O)CCC[C@@H](C)C(=O)N2 [Example 17, (9R,13S)-13-{4-[5-chloro-2-(4-chloro-1H-1,2,3-triazol-1-yl)phenyl]-6-oxo-1,2,3,6-tetrahydropyridin-1-yl}-3-(^2H3)methyl-9-methyl-3,4,7,15-tetraazatricyclo[12.3.1.0^2,6]octadeca-1(18),2(6),4,14,16-pentaen-8-one]
0.12 | 6 | C[C@@H]1CCC[C@H](N2CCC(c3cc(Cl)ccc3-n3cc(Cl)nn3)=CC2=O)c2cc(ccn2)-c2c(cnn2C)NC1=O [Example 3, (9R,13S)-13-{4-[5-chloro-2-(4-chloro-1H-1,2,3-triazol-1-yl)phenyl]-6-oxo-1,2,3,6-tetrahydropyridin-1-yl}-3,9-dimethyl-3,4,7,15-tetraazatricyclo [12.3.1.0^2,6]octadeca-1(18),2(6),4,14,16-pentaen-8-one]
